Reference: US8309731B2, “Electronic device including phenanthroline derivative” (E I du Pont de Nemours and Company, priority 2011, dated 2012)
Converted amounts (≈) assume the structure as drawn.

Tests used:
Type in all cases: physicochemical
[1] = Solubility in toluene (Compound Properties, Table 1); details: organic solvent or mixture
[2] = Solubility as observed during work-up of the synthesis; details: for solubility of the isolated solid (in words): in toluene and dichloromethane (DCM)
Procedure: To 2.0 g of dichlorobathophenanthroline (5 mM) from Example 1 was added 3.0 g (11 mM) boronic acid. To this was added 0.15 g Pd2 DBA3 (0.15 mM), 0.1 g tricyclohexylphosphine (0.35 mM) and 3.75 g potassium phosphate (17 mM), and all were dissolved into 30 mL dioxane and 15 mL water. This was mixed and heated in a glove box at 100° C. for 1 hr, then warmed gently (minimum rheostat setting) under nitrogen overnight. On reaching about 80° C. the mixture was a tan brown slurry which slowly became clear brown with a dense precipitate. As the solution refluxed (air condensor) a white powdery precipitate formed. The mixture was cooled and removed from the glove box. The dioxane was removed by evaporation and additional water added. A light brown gummy solid was isolated by filtration and washed with water. […] The product was Compound 4.
Take 2.0 g of dichloro-phen (8 mM) in glove box and add 4.7 g (17 mM) boronic acid. Add 0.15 g Pd2 DBA3 (0.15 mM), 0.1 g tricyclohexylphosphine (0.35 mM) and 3.75 g potassium phosphate (17 mM) and dissolve all into 30 mL dioxane and 15 mL water. Mix and heat in glove box in mantle at 100 C for 1 hr then warm gently (minimum rheostat setting) under nitrogen overnight. Solution immediately is dark purple but on reaching ˜80 C it is a tan brown slurry which slowly becomes clear brown. As the solution refluxes (air condensor) it remains clear brown. Cool and work up by removing from glove box and evaporate out the dioxane then add more water. Filter off light brown gummy solid and wash with water. […] The structure was confirmed by NMR analysis to be Compound 14:
Take 2.5 g of dichloro-phen (10 mM) in glove box and add 8.0 g (22 mM) boronic ester. Add 0.30 g Pd2 DBA3 (0.30 mM), 0.2 g tricylcohexylphosphine (0.70 mM) and 7.5 g potassium phosphate (34 mM) and dissolve all into 60 mL dioxane and 30 mL water. Mix and heat in glove box in mantle at 100 C for 1 hr then warm gently (minimum rheostat setting) under nitrogen overnight. Solution immediately is dark purple but on reaching ˜80 C it is a tan brown slurry which slowly becomes clear brown. […]

[3] = Solubility in anisole (footnotes of Table 1); details: organic solvent or mixture

| solubility [1] | Structure (SMILES) | further results |
| --- | --- | --- |
| 7600 µg/mL (≈ 9.28 mM) | c1ccc(-c2cc(-c3ccc(N(c4ccccc4)c4ccccc4)cc3)c3ccc4c(-c5ccc(N(c6ccccc6)c6ccccc6)cc5)cc(-c5ccccc5)nc4c3n2)cc1 [Compound 2] | – |
| 2000 µg/mL (≈ 2.71 mM) | c1ccc(-c2cc(-c3ccc(-c4ccc5ccccc5c4)cc3)nc3c2ccc2c(-c4ccccc4)cc(-c4ccc(-c5ccc6ccccc6c5)cc4)nc23)cc1 [Compound 13] | – |
| 31300 µg/mL (≈ 38.2 mM) | c1ccc(-c2cc(-c3ccc(N(c4ccccc4)c4ccccc4)cc3)nc3c2ccc2c(-c4ccccc4)cc(-c4ccc(N(c5ccccc5)c5ccccc5)cc4)nc23)cc1 [Compound 4] | solubility of the isolated solid (in words) [2]: dissolved well |
| 4500 µg/mL (≈ 6.11 mM) | c1ccc(-c2cc(-c3ccc(-c4cccc5ccccc45)cc3)nc3c2ccc2c(-c4ccccc4)cc(-c4ccc(-c5cccc6ccccc56)cc4)nc23)cc1 [Compound 3] | – |
| 4800 µg/mL (≈ 5.89 mM) | c1ccc(-c2cc(-c3cccc(-n4c5ccccc5c5ccccc54)c3)nc3c2ccc2c(-c4ccccc4)cc(-c4cccc(-n5c6ccccc6c6ccccc65)c4)nc23)cc1 [Compound 1] | – |
| 22800 µg/mL (≈ 20.4 mM) | c1ccc(-c2ccc3c(c2)c2cc(-c4ccccc4)ccc2n3-c2cccc(-c3cc(-c4ccccc4)c4ccc5c(-c6ccccc6)cc(-c6cccc(-n7c8ccc(-c9ccccc9)cc8c8cc(-c9ccccc9)ccc87)c6)nc5c4n3)c2)cc1 [Compound 12] | – |
| 10100 µg/mL (≈ 9.27 mM) | c1ccc(-c2cc(-c3c4ccccc4c(-c4ccc(-c5cccc6ccccc56)cc4)c4ccccc34)nc3c2ccc2c(-c4ccccc4)cc(-c4c5ccccc5c(-c5ccc(-c6cccc7ccccc67)cc5)c5ccccc45)nc23)cc1 [Compound 11] | – |
| 25600 µg/mL (≈ 40.2 mM) | c1ccc(-c2ccccc2-c2cc(-c3ccccc3)c3ccc4c(-c5ccccc5)cc(-c5ccccc5-c5ccccc5)nc4c3n2)cc1 [Compound 9] | – |
| 800 µg/mL (≈ 1.26 mM) | c1ccc(-c2cccc(-c3cc(-c4ccccc4)c4ccc5c(-c6ccccc6)cc(-c6cccc(-c7ccccc7)c6)nc5c4n3)c2)cc1 [Compound 16] | solubility [3]: 5000 µg/mL (≈ 7.85 mM) |

The remaining lines, values behind:

| Structure (SMILES) | solubility [1] | further results |
| --- | --- | --- |
| c1ccc(-c2cc(-c3ccc4ccccc4c3)nc3c2ccc2c(-c4ccccc4)cc(-c4ccc5ccccc5c4)nc23)cc1 [Compound 21] | 1000 µg/mL (≈ 1.71 mM) | solubility [3]: 3000 µg/mL (≈ 5.13 mM) |
| c1cc(-c2ccnc3c2ccc2c(-c4cccc(-n5c6ccccc6c6ccccc65)c4)ccnc23)cc(-n2c3ccccc3c3ccccc32)c1 [Compound 15] | 20000 µg/mL (≈ 30.2 mM) | solubility of the product (in words) ([2]; solvent not stated, observed at chromatography/crystallisation): extremely soluble |
| Fc1ccccc1-c1cc(-c2ccccc2)c2ccc3c(-c4ccccc4)cc(-c4ccccc4F)nc3c2n1 [Compound 10] | 22200 µg/mL (≈ 42.6 mM) | – |
| c1ccc(N(c2ccccc2)c2cccc(-c3ccnc4c3ccc3c(-c5cccc(N(c6ccccc6)c6ccccc6)c5)ccnc34)c2)cc1 [Compound 20] | 32200 µg/mL (≈ 48.3 mM) | – |
| c1ccc(-c2cc(-c3ccccc3)c3ccc4c(-c5ccccc5)cc(-c5ccc6ccccc6c5)nc4c3n2)cc1 [Compound 18] | 2300 µg/mL (≈ 4.3 mM) | – |
| c1ccc(N(c2ccccc2)c2ccc(-c3ccnc4c3ccc3c(-c5ccc(N(c6ccccc6)c6ccccc6)cc5)ccnc34)cc2)cc1 [Compound 14, 4,7-bis(4-diphenylaminophenyl)-1,10-phenanthroline] | – | solubility of the isolated solid (in words) [2]: dissolves well |
| c1ccc(-c2cc(-c3ccccc3)c3ccc4c(-c5ccccc5)cc(-c5cccc6ccccc56)nc4c3n2)cc1 [Compound 17] | 4200 µg/mL (≈ 7.86 mM) | – |
